Residues, ends and D or L forms follow the SMILES beside them. *: point of attachment. Cbz = O=C(OCc1ccccc1)*; CH2F = FC*
Tests used:
Type in all cases: cell-based, human
[1] = tested on: FLIP; experiment: Total FLIP protein (western blot)
Description: Western Blot Analysis. Total cell lysates were prepared using RIPA lysis buffer (Sigma) containing 150 mM sodium chloride, 1.0% Triton X-100, 0.5% sodium deoxycholate, 0.1% sodium dodecyl sulfate (SDS) and 50 mM Tris, pH 8.0 plus a 1× cocktail of protease inhibitors (Protease Inhibitor Cocktail Set I, Calbiochem). Cells were lysed for 30 minutes at 4° C. followed by centrifugation for 10 minutes at 10,000 rpm at 4° C. Protein concentrations were determined using BCA protein assay (Pierce). A 35 μg protein aliquot was mixed with 4× Laemmli's SDS sample buffer (0.02% Bromophenol Blue (BPB), 8% Beta-mercaptoethanol (BME), 8% SDS, 40% glycerol and 250 mM Tris-HCl, pH 6.8). Cell lysates were heated for five minutes at 100° C., resolved by 12% SDS-polyacrylamide gel electrophoresis (SDS-PAGE) and transferred to polyvinylidene fluoride (PVDF) membrane. The membrane was blocked with 5% non-fat milk or 5% BSA for ≥1 hour and incubated with primary antibodies for PARP and caspase 8 (Cell Signaling). After incubation, the membrane was incubated with secondary anti-rabbit or mouse horseradish peroxidase (HRP)-conjugated antibodies (Biorad). Proteins were visualized through development by enhanced chemiluminescence (ECL 2 Western Blotting Substrate, Pierce) and exposure on X-ray film. The blots were reprobed for β-actin to confirm equal protein loading.
(§1) Western Blot Analysis. Total cell lysates were analyzed for levels of PARP, caspase 8, caspase 3, Bid, caspase 9, caspase 6, caspase 7, FLIP, DR4 and DR5 and the cytosolic cellular fraction was analyzed for cytochrome C (Cell Signaling) using previously described western blotting techniques.

[2] = tested on: rhTRAIL-resistant malignant melanomas; experiment: Western blot of co-treatment with general caspase inhibitor Z-VAD-FMK; conditions: Z-VAD-FMK added to rhTRAIL plus quercetin
Description: (§2) Western Blot Analysis. Total cell lysates were prepared using RIPA lysis buffer (Sigma) containing 150 mM sodium chloride, 1.0% Triton X-100, 0.5% sodium deoxycholate, 0.1% sodium dodecyl sulfate (SDS) and 50 mM Tris, pH 8.0 plus a 1× cocktail of protease inhibitors (Protease Inhibitor Cocktail Set I, Calbiochem). Cells were lysed for 30 minutes at 4° C. followed by centrifugation for 10 minutes at 10,000 rpm at 4° C. Protein concentrations were determined using BCA protein assay (Pierce). A 35 μg protein aliquot was mixed with 4× Laemmli's SDS sample buffer (0.02% Bromophenol Blue (BPB), 8% Beta-mercaptoethanol (BME), 8% SDS, 40% glycerol and 250 mM Tris-HCl, pH 6.8). Cell lysates were heated for five minutes at 100° C., resolved by 12% SDS-polyacrylamide gel electrophoresis (SDS-PAGE) and transferred to polyvinylidene fluoride (PVDF) membrane. […]
as §1
Post treatment cells were collected and analyzed for induction of apoptosis through Annexin-V and PI staining and western blotting probing for key proteins in the apoptotic pathways (FIG. 4). […]

[3] = tested on: MeWo; experiment: Apoptosis assay (FITC-Annexin-V and PI staining, FACS); conditions: quercetin alone at 25 and 50 μM
Description: (§3) Cell Culture. Cells were incubated in a 90% humidified atmosphere with 5% CO2 at 37° C. Human adult primary epidermal melanocytes (ATCC PCS-200-013) were maintained in Dermal Cell Basal Medium supplemented with an Adult Melanocyte Growth kit (ATCC PCS-200-042) and 1% Antibiotic/Antimycotic Solution. The malignant melanoma cell lines, A375 (ATCC CRL-1619), WM9 and WM164 were maintained in DMEM and MeWo (ATCC HTB-65) was maintained in RPMI, both supplemented with 10% Fetal Bovine Serum (FBS) and 1% Antibiotic/Antimycotic Solution. WM9 and WM164 were a kind gift from Dr. Daniel J. Lindner from the Cleveland Clinic Foundation, Cleveland, Ohio Malignant melanoma lines are derived from patient tumors. A375 was derived from an epithelial skin biopsy. MeWo, WM9 and WM164 are metastatic malignant melanomas isolated from the lymph nodes.
(§4) Apoptosis Assay. Cells were trypsinized, harvested, washed twice with cold PBS and resuspended in 100 μl of Annexin-V binding buffer at a concentration of 1×10^3 cells/μl. According to manufacturer's protocol, cells were incubated with 5 μl of FITC-Annexin-V and propidium iodide (PI) for 15 minutes at room temperature in the dark (FITC-Annexin-V Kit Apoptosis Detection Kit I, BD Pharminogen). Stained cells were analyzed on BD FACS Canto II using Diva software. Single color controls (Annexin-V or PI only) were used to set up compensation and quadrants for FACS.
(§5) Melanoma rhTRAIL-Sensitivity: To test rhTRAIL-sensitivity, malignant melanoma lines were treated with and without 100 ng/ml of rhTRAIL for 72 hours. Prior to treatment, control experiments were done to determine the optimal conditions for rhTRAIL-treatment (data not shown). The treatment of 100 ng/ml for 72 hours was selected to best distinguish between rhTRAIL-sensitive and rhTRAIL-resistant melanomas. Post-treatment cells were analyzed for induction of apoptosis through FITC-Annexin-V and PI staining followed by FACS analysis (FIGS. 2A & 2B). […]

[4] = tested on: WM164; experiment: as above
Description: as §3, §4, §5

[5] = tested on: MeWo; experiment: Western blot of apoptotic cascade (PARP, caspases, Bid, cytochrome c); conditions: quercetin alone at 25 and 50 μM
Description: as §2, with “6.8).” for “6.8). Cell lysates were heated for five minutes at 100° C., resolved by 12% SDS-polyacrylamide gel electrophoresis (SDS-PAGE) and transferred to polyvinylidene fluoride (PVDF) membrane.”
(§6) Melanoma rhTRAIL-Sensitivity: To test rhTRAIL-sensitivity, malignant melanoma lines were treated with and without 100 ng/ml of rhTRAIL for 72 hours. […] Post-treatment cells were analyzed for induction of apoptosis through FITC-Annexin-V and PI staining followed by FACS analysis (FIGS. 2A & 2B).
(§7) Western Blot Analysis. Total cell lysates were analyzed for levels of PARP, caspase 8, caspase 3, Bid, caspase 9, caspase 6, caspase 7, FLIP, DR4 and DR5 and the cytosolic cellular fraction was analyzed for cytochrome C (Cell Signaling) using previously described western blotting techniques. […]

[6] = tested on: WM164; experiment: as above; conditions: WM164, quercetin alone at 25 and 50 μM
Description: as §2, with “6.8).” for “6.8). Cell lysates were heated for five minutes at 100° C., resolved by 12% SDS-polyacrylamide gel electrophoresis (SDS-PAGE) and transferred to polyvinylidene fluoride (PVDF) membrane.”
as §6, §7

[7] = tested on: DR4; experiment: Death receptor membrane expression (anti-DR4-PE staining, FACS)
Description: (§8) Death Receptor Membrane Expression. Untreated and rhTRAIL-treated cells were collected with enzyme-free phosphate-buffered saline (PBS)-based cell dissociation buffer (Gibco Life Technologies) and stained with mouse anti-human DR4 or DR5 conjugated to phycoerythrin (PE) (eBioscience). Briefly, 0.25×10^6 cells were incubated in 100 μl of staining buffer (2% FBS and 0.02% sodium azide in PBS) and 5 μl anti-DR4 or anti-DR5 for one hour on ice in the dark. As a negative control to account for non-specific antibody binding, all four melanoma lines were stained with mouse IgG1κ, the same antibody isotype as DR4 and DR5, under the same conditions. After incubation, cells were washed twice with staining buffer and resuspended in 500 μl of staining buffer and analyzed on BD FACS Canto II using Diva software (BD Bioscience, San Jose, Calif.). Death Receptor Membrane Expression. The cell surface expression of DR4 and DR5 were determined according to previously described methods. For the permeabilization experiments, after the first antibody incubation cells were fixed in 4% paraformaldehyde for 10 minutes at room temperature and permeabilized with 0.1% saponin for 5 minutes at room temperature. Cells were then incubated with anti-IgG1κ, DR4 or DR5 for 30 minutes in the saponin buffer and analyzed by FACS. To calculate the cytoplasmic DR expression, […].

[8] = tested on: DR5; experiment: Death receptor membrane expression (anti-DR5-PE staining, FACS)
Description: as §8

[9] = tested on: DR4; experiment: Total DR4 protein (western blot)
Description: as §2, with “membrane. The membrane was blocked with 5% non-fat milk or 5% BSA for ≥1 hour and incubated with primary antibodies for PARP and caspase 8 (Cell Signaling).” for “membrane.”
as §1

[10] = tested on: DR4; experiment: DR4 mRNA (reverse transcription-PCR)
Description: (§9) Reverse Transcription-PCR. Total RNA was extracted using TRIzol reagent (Ambion) and treated with DNase according to manufacturer's protocol (Invitrogen Deoxyribonuclease I, Amplification Grade). RT-PCR was performed following the manufacturer's protocol (Invitrogen SuperScript III One-Step RT-PCR System with Platinum® Taq DNA Polymerase). Human DR5 mRNA was amplified using the forward primer 5′-[…]-3′ and the reverse primer 5′-[…]-3′. For DR4, forward primer 5′-GAGCAACGCAGACTCGCT-3′ and the reverse primer 5′-TCACTCCAAGGACACGGC-3′ were used. For FLIP, forward primer 5′-[…]-3′ and the reverse primer 5′-[…]-3′ were used. For β-actin, the forward primer 5′-[…]-3′ and the reverse primer 5′-[…]-3′ were used. cDNA synthesis was performed at 60° C. for 30 minutes using the Applied Biosystems GeneAmp PCR System 9700. The PCR cycling conditions (30 cycles) were as follows: denature for 2 minutes at 94° C., anneal for 30 seconds at 55° C. for FLIP and DR4 and 65° C. for DR5 and β-actin, extend for 1 minute and 30 seconds at 68° C., and execute a final extension for 10 minutes at 68° C. Reaction products were analyzed on 1.2% agarose gels. The bands were visualized by ethidium bromide and an UV.

[11] = tested on: DR5; experiment: Total DR5 protein (western blot)
Description: as §2, with “membrane. The membrane was blocked with 5% non-fat milk or 5% BSA for ≥1 hour and incubated with primary antibodies for PARP and caspase 8 (Cell Signaling).” for “membrane.”
as §1

[12] = tested on: DR5; experiment: DR5 mRNA (reverse transcription-PCR)
Description: as §9

[13] = tested on: DR4; experiment: Cytoplasmic DR4 expression (permeabilization, FACS)
Description: Death Receptor Membrane Expression. The cell surface expression of DR4 and DR5 were determined according to previously described methods. For the permeabilization experiments, after the first antibody incubation cells were fixed in 4% paraformaldehyde for 10 minutes at room temperature and permeabilized with 0.1% saponin for 5 minutes at room temperature. Cells were then incubated with anti-IgG1κ, DR4 or DR5 for 30 minutes in the saponin buffer and analyzed by FACS. To calculate the cytoplasmic DR expression, […].

[14] = tested on: FLIP; experiment: FLIP mRNA (reverse transcription-PCR)
Description: as §9

[15] = MeWo, post-treatment with quercetin
[16] = WM164, post-treatment with quercetin

CC(C)C[C@@H](C=O)NC(=O)[C@H](CC(C)C)NC(=O)[C@H](CC(C)C)NC(=O)OCc1ccccc1 [MG132, reference compound] (Cbz-Leu-Leu-Leu-aldehyde)
effect of proteasome inhibitor on quercetin-mediated FLIP downregulation (total FLIP protein) ([1]; co-treatment with quercetin): the downregulation of FLIP was prevented

COC(=O)C[C@H](NC(=O)[C@H](C)NC(=O)[C@@H](NC(=O)OCc1ccccc1)C(C)C)C(=O)CF [Z-VAD-FMK] (Cbz-Val-Ala-Asp(OMe)-CH2F)
effect on induction of apoptosis (PARP cleavage, caspase 3 activation) in the co-treatment group [2]: blocked the induction of apoptosis

O=c1c(O)c(-c2ccc(O)c(O)c2)oc2cc(O)cc(O)c12 [quercetin]
induction of apoptosis compared to control [3]: no significant induction of apoptosis
apoptotic cells ([4]; WM164, quercetin alone at 25 μM): 10.5±0.7%
apoptotic cells ([4]; WM164, quercetin alone at 50 μM): 19.1±1.6%
PARP cleavage or activation of pro-apoptotic proteins [5]: no PARP cleavage or activation of any pro-apoptotic proteins
PARP cleavage or protein activation [6]: did not reveal any PARP cleavage or protein activation
DR4 membrane expression, fold increase relative to control ([7]; MeWo, quercetin 25 μM): over four-fold
DR4 membrane expression, fold increase relative to control ([7]; MeWo, quercetin 50 μM): over 11 fold
DR4 membrane expression, fold increase relative to control ([7]; WM164, quercetin 25 μM): nearly five-fold
DR4 membrane expression, fold increase relative to control ([7]; WM164, quercetin 50 μM): seven-fold
DR5 membrane expression upregulation ([8]; MeWo, quercetin 25 and 50 μM): this did not occur
DR5 membrane expression, fold increase relative to control ([8]; WM164, quercetin 25 μM): quarter-fold increase
DR5 membrane expression, fold increase relative to control ([8]; WM164, quercetin 50 μM): half-fold increase
total DR4 protein expression [9, 15]: no change
total DR4 protein expression [9, 16]: no change
DR4 mRNA message [10, 15]: no change
DR4 mRNA message [10, 16]: no change
total DR5 protein expression [11, 15]: no change
total DR5 protein [11, 16]: dose-dependent upregulation
DR5 mRNA [12, 15]: no change
DR5 mRNA [12, 16]: dose-dependent upregulation
cytoplasmic levels of DR4 ([13]; MeWo, application of quercetin): decreased
cytoplasmic levels of DR4 ([13]; WM164, application of quercetin): decreased
protein expression of FLIP ([1]; MeWo, quercetin): dose-dependently downregulate
protein expression of FLIP ([1]; WM164, quercetin): dose-dependently downregulate
FLIP mRNA transcript signal ([14]; MeWo, quercetin): no change
FLIP mRNA transcript signal ([14]; WM164, quercetin): no change
